# Measurements taken from patent US9657022B2, “7-OXO-1,6-diazabicyclo[3.2.1]octane derivatives and their use as antibacterial agents” (WOCKHARDT LIMITED, priority 2014, dated 2017).
# “And” between values parts separate entries of the source, which are not always exact repeats. Identical values can stand only once. Like-named read-outs stand apart in the source and are kept apart here.
# Columns and labels:
# Experiment in all cases: Beta-lactamase enzyme inhibition (Nitrocefin, crude enzyme)
# Format in all cases: biochemical
# [1] = target: T1, Class A beta-lactamase SHV 18 (K. pneumoniae ATCC 700603) (Klebsiella pneumoniae, UniProt P0AD64, E235K/G234A/I4F/R39S); conditions: Class A, K. pneumoniae ATCC 700603 (SHV 18); read-out: Beta-lactamase enzyme inhibition IC50
# T1 sequence (P0AD64 1-286 I4F/R39S/G234A/E235K): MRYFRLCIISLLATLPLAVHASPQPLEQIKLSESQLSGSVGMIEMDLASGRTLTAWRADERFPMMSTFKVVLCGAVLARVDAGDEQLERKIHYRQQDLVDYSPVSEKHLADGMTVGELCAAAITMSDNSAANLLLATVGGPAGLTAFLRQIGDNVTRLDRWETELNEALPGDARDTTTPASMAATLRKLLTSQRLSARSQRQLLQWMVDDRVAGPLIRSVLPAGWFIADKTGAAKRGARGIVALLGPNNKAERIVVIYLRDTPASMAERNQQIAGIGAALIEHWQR
# Protocol: (§1) Absorbance was measured at 485 nm by UV-spectrophotometer. The IC50 was calculated by plotting absorbance against concentration through Sigmoidal dose response curve using Graph Pad software.
# (§2) The enzyme inhibition was expressed as IC50.
# [2] = tested on: Class C beta-lactamase CMY/DHA (E. coli M50)
# Protocol: as §1, §2
# [3] = target: T2, Class D beta-lactamase OXA 23 (A. baumannii NCTC 13301) (Acinetobacter baumannii, UniProt Q9L4P2); conditions: Class D, A. baumannii NCTC 13301 (OXA 23); read-out: Beta-lactamase enzyme inhibition IC50
# T2 construct: preincubated mixture of crude enzyme and the compounds; endogenous in cells; host or cells: A. baumannii NCTC 13301
# Protocol: as §1, §2
# T2 sequence (Q9L4P2 18-273): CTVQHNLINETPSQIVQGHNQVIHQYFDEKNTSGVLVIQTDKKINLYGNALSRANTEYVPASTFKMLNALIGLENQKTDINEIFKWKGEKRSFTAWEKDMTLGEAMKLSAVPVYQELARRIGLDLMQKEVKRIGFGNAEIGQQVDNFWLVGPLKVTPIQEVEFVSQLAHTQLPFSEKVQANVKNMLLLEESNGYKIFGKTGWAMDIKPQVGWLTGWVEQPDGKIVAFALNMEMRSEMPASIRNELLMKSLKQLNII
smiles,measurement,setting,value
"O=C(C[C@@H]1CCCN1)NNC(=O)[C@@H]1CC[C@@H]2CN1C(=O)N2OS(=O)(=O)O [Example 1, (2S,5R)-Sulfuric acid mono-{2-[N′-(2-(S)-pyrrolidin-2-yl-acetyl)-hydrazinocarbonyl]-7-oxo-1,6-diaza-bicyclo[3.2.1]oct-6-yl}ester]",IC50,[1],80 nM and 81 nM
same,IC50,[2],60 nM
same,IC50,[2]; listed as Compound of Example 1,65 nM
same,IC50,[3],2390 nM
